We go through one compound from patent US12110289B2, “Heterocyclic compounds, preparation methods and uses thereof” (InventisBio Co., Ltd., priority 2020, dated 2024).

The structures appear in SMILES notation.

Data set [1] in a line: Human hepatocyte clearance study. The data set is classed as in vitro ADME. Particulars: human, pooled cryopreserved human hepatocytes (suspension), working cell density 2 × 10^6 viable cells/mL.
For the next data set, the system named is pooled human hepatocytes. The experiment in a line: Human hepatocyte clearance study. The data set is classed as in vitro ADME.
The nature of data set [2]: Rat PK study, single i.g. dose. The data set is classed as in vivo. To be noted: female, SD, plasma, PO, 10 mg/kg. The protocol: The pharmacokinetic (PK) profile of compounds following single i.g in SD rat obtained from […] Laboratory Animal Co., LTD of Shanghai was determined. Three female rats of weight around 220 g were used. Compounds were prepared at 1 mg/ml with the formulation of 10% DMSO+10% solutol HS15+80% (10% HPβCD in water). Blood samples (0.2 mL) were collected at 0 h (pre-dose) and 0.25, 0.5, 1, 2, 4, 8, 24 h time points after administration of compounds at the dose of 10 mg/kg. The collected blood samples were centrifuged without delay and the plasma was separated and transferred into tubes before storage at -70° C. prior to analysis. Aliquots of the plasma unknowns, blank and calibration standards were placed in 1.5 mL tubes and mixed with acetonitrile/methanol (1/1, v/v) containing IS. After vortexing for 5 min, each sample was centrifuged at 14000 rpm at 4° C. for 10 min. The supernatant were injected into the LC-MS/MS system. […] Eluates were analyzed using an API4000 Q-Trap mass spectrometer with a TurboIonSpray interface. Chromatographic separation was done with a mobile phase composed of water with 0.1% formic acid (solution A) and acetonitrile with 0.1% formic acid (solution B). The mobile phase was delivered at a flow rate of 0.6 mL/min, using a stepwise gradient elution program. To improve the sensitivity of the test compound screening, a MRM method in positive electrospray ionization mode was employed. Mass spectrometry data was acquired and analyzed using AB Sciex Analyst version 1.6.2 software. The pharmacokinetic parameters were derived using standard noncompartmental methods with Phoenix WinNonLin Professional Version 8.1.

The subject of the next data set is SW837 xenograft. The experiment in a line: Colorectal adenocarcinoma SW837 xenograft model, tumor volume. The data set is classed as in vivo, BALB/c nude mice. To be noted: 30 mg/kg oral once daily vs AMG510 at 60 mg/kg; FIG. 1. On the procedure: (§1) All the procedures related to animal handling, care and the treatment in this study were performed according to the guidelines approved by the Institutional Animal Care and Use Committee (IACUC) of SIPPER B&K following the guidance of the Association for Assessment and Accreditation of Laboratory Animal Care (AAALAC). At the time of routine monitoring, the animals were checked for any effects of tumor growth on normal behavior such as mobility, food and water consumption (by looking only), body weight gain/loss (body weights were measured twice weekly), eye/hair matting and any other abnormal effect. Death and observed clinical signs were recorded on the basis of the numbers of animals within each subset.
The NCI-H358, SW837, NCI-H2122 tumor cells were purchased from the American Type Culture Collection (ATCC). Cells were maintained in vitro as monolayer cultured in RPMI-1640 or DMEM medium supplemented with 10% fetal bovine serum, 50 IU/ml penicillin/streptomycin (GIBCO) at 37° C. in an atmosphere of 5% CO2 in air. The tumor cells were routinely sub cultured twice weekly by trypsin-EDTA treatment. The cells growing in an exponential growth phase were harvested and counted for tumor inoculation.
For tumor bearing models, female 6- to 8-week-old athymic BALB/c nude mice were used for human cancer cell lines. Each mouse was inoculated subcutaneously at the right flank with tumor cells (10×10^6) in 0.1 ml of PBS. The treatments were started when the average tumor size reached approximately 200-250 mm^3. Carboplatin, Cisplatin was injected twice a week by i.p. Vehicles and other test articles were given orally as a suspension by gavage once daily during the study or treatment period.
(§2) Tumor volume was calculated by measuring two perpendicular diameters using the following formula: (L×W 2)/2 in which L and W refer to the length and width tumor diameter, respectively. Results are expressed as mean and standard deviation of the mean.

In a further data set the test system is NCI-H2122 xenograft. Briefly: NSCLC H2122 xenograft model, tumor volume. The class given is in vivo, BALB/c nude mice. To be noted: 60 mg/kg oral once daily vs AMG510 at 60 mg/kg; FIG. 3. The protocol: as §1
The NCI-H358, SW837, NCI-H2122 tumor cells were purchased from the American Type Culture Collection (ATCC). Cells were maintained in vitro as monolayer cultured in RPMI-1640 or DMEM medium supplemented with 10% fetal bovine serum, 50 IU/ml penicillin/streptomycin (GIBCO) at 37° C. in an atmosphere of 5% CO2 in air. […] The cells growing in an exponential growth phase were harvested and counted for tumor inoculation. […]
as §2

Regarding `C=CC(=O)N1C[C@H](C)N(c2nc(=O)n(-c3c(C4CC4)ncnc3C3CC3)c3nc(-c4c(N)cccc4F)c(Cl)cc23)C[C@H]1C` [Compound 126], the hepatocyte CLint at 1 µM in data set [1] (read-out: Human In vitro Clint (μl/min/10^6 cells)) worked out at 6.6 µL/min/1e6 cells. The half-life at 1 µM in data set [1] (read-out: Human In vitro T1/2) worked out at 1.73 h. The CLint scaled at 1 µM in data set [1] (read-out: Human Scale-up Clint) was found to be 17 mL/min/kg. For the same compound, the “human hepatocyte clearance profile compared to control compounds” value with pooled human hepatocytes is recorded as “better human hepatocyte clearance profile”. Besides, the “Human Hepatocyte Remaining Percentage @ 120 min (%)” value with pooled human hepatocytes (working cell density 2 × 10^6 viable cells/mL) is on record as 47.8%. For the same compound, in data set [2] (read-out: Rat PO (10 mpk) AUC last), the AUC(0-t) stood at 3.8 µM·h. Moreover, the Cmax (as a rule, the peak of the concentration-time curve) in data set [2] (read-out: Rat PO (10 mpk) Cmax) came to 1060 nM. Also, in data set [2] (read-out: Rat PO (10 mpk) F %), the bioavailability stood at 54%. Besides, the “reducing tumor volume compared with AMG510” value in the data set on SW837 xenograft and with NCI-H2122 xenograft was “more effective than AMG510” each time.
